Organism: Rattus norvegicus
Experiment: Open TG-GATES - Regimen: Single
Format: toxicity, organism-based, Sprague-Dawley
Design: regimen Single, gender Male, age 6 weeks
Settings: in vivo, po, 10 mg/kg, route gavage, dose level Middle; for APTT / Bas / Eos / Fbg / Hb / Ht / Lym / MCH / MCHC / MCV / Mono / Neu / PT / Plat / RBC / Ret / WBC: tissue Blood; for KIDNEY_L / KIDNEY_R / KIDNEY_TOTAL: tissue Kidney; for LIVER: tissue Liver; for A/G / ALP / ALT / AST / BUN / CRE / Ca / Cl / DBIL / GLC / IP / K / LDH / Na / PL / RALB / TBIL / TC / TG / TP / gamma-GTP: tissue Plasma

SMILES: CN(C)CCC(c1ccc(Cl)cc1)c1ccccn1 (configuration not stated) [CHLORPHENIRAMINE]
- TERMINAL_BW (3 h): 196.8 g
- APTT (3 h): 19.7 s
- Bas (3 h): 0%
- Eos (3 h): 0.4%
- Fbg (3 h): 295.8 mg/dL
- Hb (3 h): 13.5 g/dL
- Ht (3 h): 42%
- Lym (3 h): 77.4%
- MCH (3 h): 21.3 pg
- MCHC (3 h): 32.1%
- MCV (3 h): 66.1 fL
- Mono (3 h): 3%
- Neu (3 h): 18.2%
- PT (3 h): 14.7 s
- Plat (3 h): 126.4 x10_4/uL
- RBC (3 h): 634 x10_4/ul
- Ret (3 h): 9.7%
- WBC (3 h): 73.4 x10_2/uL
- KIDNEY_L (3 h): 0.8 g
- KIDNEY_R (3 h): 0.8 g
- KIDNEY_TOTAL (3 h): 1.6 g
- LIVER (3 h): 9 g
- A/G (3 h): 0.9
- ALP (3 h): 1551 IU/L
- ALT (3 h): 47.4 IU/L
- AST (3 h): 74.6 IU/L
- BUN (3 h): 9.2 mg/dL
- CRE (3 h): 0.2 mg/dL
- Ca (3 h): 10.9 mg/dL
- Cl (3 h): 107.6 meq/L
- DBIL (3 h): 0.006 mg/dL
- GLC (3 h): 180.2 mg/dL
- IP (3 h): 10.3 mg/dL
- K (3 h): 4.1 meq/L
- LDH (3 h): 200.6 IU/L
- Na (3 h): 144.6 meq/L
- PL (3 h): 156 mg/dL
- RALB (3 h): 2.6 g/dL
- TBIL (3 h): 0.046 mg/dL
- TC (3 h): 84.6 mg/dL
- TG (3 h): 75 mg/dL
- TP (3 h): 5.5 g/dL
- gamma-GTP (3 h): 1 IU/L
- TERMINAL_BW (6 h): 195.1 g
- APTT (6 h): 21.5 s
- Bas (6 h): 0%
- Eos (6 h): 1%
- Fbg (6 h): 297 mg/dL
- Hb (6 h): 13.2 g/dL
- Ht (6 h): 41%
- Lym (6 h): 74.4%
- MCH (6 h): 20.6 pg
- MCHC (6 h): 32.2%
- MCV (6 h): 64 fL
- Mono (6 h): 3%
- Neu (6 h): 20.8%
- PT (6 h): 14.9 s
- Plat (6 h): 129.3 x10_4/uL
- RBC (6 h): 641.2 x10_4/ul
- Ret (6 h): 8.8%
- WBC (6 h): 74.4 x10_2/uL
- KIDNEY_L (6 h): 0.8 g
- KIDNEY_R (6 h): 0.9 g
- KIDNEY_TOTAL (6 h): 1.7 g
- LIVER (6 h): 8.4 g
- A/G (6 h): 0.9
- ALP (6 h): 1438.8 IU/L
- ALT (6 h): 42.2 IU/L
- AST (6 h): 73.4 IU/L
- BUN (6 h): 7.8 mg/dL
- CRE (6 h): 0.2 mg/dL
- Ca (6 h): 10.5 mg/dL
- Cl (6 h): 107 meq/L
- DBIL (6 h): 0.006 mg/dL
- GLC (6 h): 177.4 mg/dL
- IP (6 h): 10.1 mg/dL
- K (6 h): 4.2 meq/L
- LDH (6 h): 176 IU/L
- Na (6 h): 142.6 meq/L
- PL (6 h): 140.6 mg/dL
- RALB (6 h): 2.5 g/dL
- TBIL (6 h): 0.04 mg/dL
- TC (6 h): 80.8 mg/dL
- TG (6 h): 42.6 mg/dL
- TP (6 h): 5.5 g/dL
- gamma-GTP (6 h): 1.6 IU/L
- TERMINAL_BW (9 h): 192.7 g
- APTT (9 h): 17.7 s
- Bas (9 h): 0%
- Eos (9 h): 1%
- Fbg (9 h): 292.6 mg/dL
- Hb (9 h): 13.3 g/dL
- Ht (9 h): 41.3%
- Lym (9 h): 76.2%
- MCH (9 h): 20.8 pg
- MCHC (9 h): 32.3%
- MCV (9 h): 64.3 fL
- Mono (9 h): 1.8%
- Neu (9 h): 20.6%
- PT (9 h): 15.1 s
- Plat (9 h): 123.4 x10_4/uL
- RBC (9 h): 643.8 x10_4/ul
- Ret (9 h): 8.5%
- WBC (9 h): 67.8 x10_2/uL
- KIDNEY_L (9 h): 0.9 g
- KIDNEY_R (9 h): 0.9 g
- KIDNEY_TOTAL (9 h): 1.8 g
- LIVER (9 h): 7.5 g
- A/G (9 h): 0.9
- ALP (9 h): 1406.4 IU/L
- ALT (9 h): 35.2 IU/L
- AST (9 h): 69 IU/L
- BUN (9 h): 7.2 mg/dL
- CRE (9 h): 0.1 mg/dL
- Ca (9 h): 10.4 mg/dL
- Cl (9 h): 105.6 meq/L
- DBIL (9 h): 0.008 mg/dL
- GLC (9 h): 162 mg/dL
- IP (9 h): 10.4 mg/dL
- K (9 h): 4 meq/L
- LDH (9 h): 145.2 IU/L
- Na (9 h): 142.4 meq/L
- PL (9 h): 131.2 mg/dL
- RALB (9 h): 2.5 g/dL
- TBIL (9 h): 0.054 mg/dL
- TC (9 h): 80 mg/dL
- TG (9 h): 37.8 mg/dL
- TP (9 h): 5.5 g/dL
- gamma-GTP (9 h): 1.4 IU/L
- TERMINAL_BW (24 h): 209.2 g
- APTT (24 h): 21.6 s
- Bas (24 h): 0%
- Eos (24 h): 0.8%
- Fbg (24 h): 287.6 mg/dL
- Hb (24 h): 12.5 g/dL
- Ht (24 h): 38.8%
- Lym (24 h): 76.4%
- MCH (24 h): 20.7 pg
- MCHC (24 h): 32.4%
- MCV (24 h): 63.9 fL
- Mono (24 h): 3.8%
- Neu (24 h): 18.2%
- PT (24 h): 14.8 s
- Plat (24 h): 118.2 x10_4/uL
- RBC (24 h): 606.6 x10_4/ul
- Ret (24 h): 8.5%
- WBC (24 h): 79.8 x10_2/uL
- KIDNEY_L (24 h): 0.9 g
- KIDNEY_R (24 h): 0.9 g
- KIDNEY_TOTAL (24 h): 1.7 g
- LIVER (24 h): 9 g
- A/G (24 h): 0.9
- ALP (24 h): 1569.6 IU/L
- ALT (24 h): 46.4 IU/L
- AST (24 h): 77.8 IU/L
- BUN (24 h): 14.8 mg/dL
- CRE (24 h): 0.2 mg/dL
- Ca (24 h): 10.8 mg/dL
- Cl (24 h): 106.6 meq/L
- DBIL (24 h): 0.01 mg/dL
- GLC (24 h): 184.2 mg/dL
- IP (24 h): 8.2 mg/dL
- K (24 h): 4.3 meq/L
- LDH (24 h): 132.2 IU/L
- Na (24 h): 142.8 meq/L
- PL (24 h): 142.8 mg/dL
- RALB (24 h): 2.6 g/dL
- TBIL (24 h): 0.04 mg/dL
- TC (24 h): 76.4 mg/dL
- TG (24 h): 82.6 mg/dL
- TP (24 h): 5.5 g/dL
- gamma-GTP (24 h): 1.2 IU/L
